Experimental data from patent US20200216563A1, “HDAC6 AND PROTEIN AGGREGATION” (Friedrich Miescher Institute for Biomedical Research, priority 2017, published 2020).

Key:
DDX3X-K118Ac = assay: DDX3X acetylation in HEK293T cells expressing CBP or p300 (immunoprecipitation and immunoblotting); assay type: cell-based, human; details: for DDX3X-K118Ac signal after treating the cells with HDAC inhibitors: HEK293T cells transiently expressing CBP, DDX3X-K118Ac-specific antibody
Experimental: HEK293T cells were transfected with Lipofectamine 2000 (Life Technologies) or FuGENE HD (Promega), and MEF cells were transfected with 4D-Nucleofector™ System (Lonza), following manufacturer's protocol.
Cells were washed by ice-cold PBS and lysed in Triton lysis buffer (50 mM Tris-HCl, pH8.0, 150 mM sodium chloride, 1 mM EDTA, 0.1% TritonX-100 and Complete EDTA-free protease inhibitors (Roche)) for analysis. To detect protein acetylation, 0.2 μM Trichostatin A and 5 mM nicotinamide was added to PBS for wash, and 10 μM Trichostatin A, 10 mM nicotinamide, 50 mM sodium butyrate were added to Triton lysis buffer. To detect protein phosphorylation, Pierce Protease and Phosphatase Inhibitor Mini Tablets (Thermo scientific) were added to Triton lysis buffer instead of Complete EDTA-free protease inhibitors. Five hundred μg protein lysates were incubated with the specific antibody for overnight at 4° C., and immunoprecipitated with Dynabeads ProteinG (invitrogen) for 1 h at 4° C. Samples were boiled for 10 min in SDS-PAGE sample buffer, and separated with 4-12% NuPAGE gels (invitrogen). […] For inhibition of HDACs in cells, concentration of each HDAC inhibitor was as described in {Scholz, 2015 #851}.
(§1) To investigate whether DDX3X-K118Ac is a direct target site of HDAC6, the inventors performed a biochemical assay using purified components. […] Next, they tested the acetylation status of DDX3X in cells. It has been shown that the stoichiometry of acetylation is generally low {Weinert, 2014 #452}, making it difficult to detect. The inventors therefore attempted to enhance the level of acetylation by expressing different HATs. To test which HAT(s) can act on DDX3X, expression vectors for PCAF, CBP, Tip60 or p300 were individually transfected into HEK293T cells and cellular extracts were analyzed by immunoprecipitation and immunoblotting.
Different deacetylases often redundantly target the same lysine acetylation site on a target protein. […] To test whether the DDX3X-K118 deacetylation is specific for HDAC6, the inventors transiently expressed CBP in HEK293T cells and assessed the DDX3X-K118Ac signal after treating the cells with several HDAC inhibitors.

[1] = biological target: T1, Danio rerio HDAC6 CD1-CD2 (a.a.40-831) (Danio rerio, UniProt F8W4B7); assay: In vitro HDAC6 deacetylation assay with DDX3X-K118 acetylated peptide; assay type: biochemical; details: 1 μM Trichostatin A, 3 hours, 37° C., HPLC UV 214 nm
T1 construct: Danio rerio HDAC6 CD1-CD2 (a.a.40-831) was expressed in Sf9 insect cells; made in house; host or cells: Sf9 insect cells
T1 sequence (F8W4B7 40-831): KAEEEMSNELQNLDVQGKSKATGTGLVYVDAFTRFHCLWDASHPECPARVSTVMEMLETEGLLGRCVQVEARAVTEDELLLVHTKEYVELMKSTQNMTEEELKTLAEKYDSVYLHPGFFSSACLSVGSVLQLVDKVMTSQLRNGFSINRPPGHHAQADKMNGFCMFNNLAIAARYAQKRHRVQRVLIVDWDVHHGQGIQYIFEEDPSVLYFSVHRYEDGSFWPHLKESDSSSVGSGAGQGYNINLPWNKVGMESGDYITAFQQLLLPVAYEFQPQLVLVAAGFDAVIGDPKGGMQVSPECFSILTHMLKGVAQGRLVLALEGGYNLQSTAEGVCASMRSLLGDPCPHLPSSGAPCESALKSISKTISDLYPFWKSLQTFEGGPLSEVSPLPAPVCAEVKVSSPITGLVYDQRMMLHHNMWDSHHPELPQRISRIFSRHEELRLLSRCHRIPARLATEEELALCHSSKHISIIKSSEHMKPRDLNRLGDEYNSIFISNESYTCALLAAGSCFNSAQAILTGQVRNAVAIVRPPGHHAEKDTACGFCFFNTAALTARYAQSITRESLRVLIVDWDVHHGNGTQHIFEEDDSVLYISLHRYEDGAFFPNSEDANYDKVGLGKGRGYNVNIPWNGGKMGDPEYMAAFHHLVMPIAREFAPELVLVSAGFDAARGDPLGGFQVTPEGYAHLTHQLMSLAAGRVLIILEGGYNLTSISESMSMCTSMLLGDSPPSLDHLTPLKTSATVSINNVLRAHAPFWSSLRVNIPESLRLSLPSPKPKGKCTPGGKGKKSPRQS
Text: as §1

DDX3X-K118 acetylation = DDX3X-K118 acetylation under arsenite-induced oxidative stress (immunoblotting); assay type: cell-based

Row | Molecule | DDX3X-K118Ac signal after treating the cells with HDAC inhibitors (DDX3X-K118Ac) | also measured
1 | CCCCOc1ccc(CC(=O)NO)cc1 [Bufexamac] | increased | 
2 | CC(/C=C/C(=O)NO)=C\[C@@H](C)C(=O)c1ccc(N(C)C)cc1 [Trichostatin A] |  | deacetylation of the DDX3X-K118Ac peptide by purified tandem HDAC6 catalytic domains [1]: inhibited
3 | O=C(CCCCCCC(=O)Nc1ccc([C@H]2O[C@@H](CSc3nc(-c4ccccc4)c(-c4ccccc4)o3)C[C@@H](c3ccc(CO)cc3)O2)cc1)NO [Tubacin] | increased | acetylation level of endogenous or overexpressed DDX3X (DDX3X-K118Ac; HEK293T cells transfected with CBP or p300 (with or without DDX3X construct), treatment of the cells with inhibitor): increased even further; DDX3X-K118 acetylation after arsenite treatment plus HDAC6 inhibitor (DDX3X-K118 acetylation; WT cells treated with arsenite and also with Tubacin): further increased
4 | CN1CCc2c(c3ccccc3n2Cc2ccc(C(=O)NO)cc2)C1 [Tubastatin A] | increased | 
5 | NC(=O)c1cccnc1 [nicotinamide] | neither nicotinamide, a sirtuin deacetylase inhibitor, nor sodium butyrate, a class I HDAC inhibitor, altered the acetylation status | 
6 | CCCC(=O)[O-].[Na+] [sodium butyrate] | neither nicotinamide, a sirtuin deacetylase inhibitor, nor sodium butyrate, a class I HDAC inhibitor, altered the acetylation status | 
7 | sodium arsenite |  | DDX3X-K118 acetylation after arsenite treatment (DDX3X-K118 acetylation): increased
